Values quoted from earlier work, collected in patent US6585958B1, “Medicinal aerosol formulations” (Jago Research AG, priority 1998, dated 2003).

Conditions: at 20° C.

| density | vapor pressure | Structure (SMILES) |
| --- | --- | --- |
| about 1.2 mg/ml | about 6 bar | FCC(F)(F)F [HFA 134a, 1,1,1,2-tetrafluoroethane] |
| about 1.4 mg/ml | about 4.2 bar | FC(C(F)(F)F)C(F)(F)F [HFA 227, 1,1,1,2,3,3,3-heptafluoropropane] |
